Assay results as given in patent US20240287100A1, “ALKYLIDENE DERIVATIVES AS KRAS INHIBITORS” (NIKANG THERAPEUTICS, INC., priority 2021, published 2024).

Biological target: T1, K-Ras G12D (Homo sapiens, UniProt P01116, G12D)
T1 construct: AGS (Cobioer, CBP60476) cell lines which harbor KRAS G12D mutation; host or cells: AGS
Experiment: p-ERK Cellular 1-Plate Assay (AlphaLISA SureFire Ultra p-ERK1/2) in AGS cells
Format: cell-based
Details: AGS cells harboring KRAS G12D mutation, 3 h at 37° C., 5,000 cells per well
Protocol: p-ERK Cellular 1-Plate Assay
The ability of the compound of Formula (I) or a pharmaceutically acceptable salt thereof (test compound) to inhibit K-Ras G12D activity was tested using AGS (Cobioer, CBP60476) cell lines which harbor KRAS G12D mutation as described below.
AGS (Cobioer, CBP60476) were seeded in 384-well plates and cultured overnight (5,000 cells per well, 40 μl total volume). The following morning, cells were treated with test compound, with starting concentration at 10 μM and 3-fold dilution down to 0.5 nM for 3 h at 37° C. DMSO treatment served as control, p-ERK was then measured using AlphaLISA SureFire Ultra p-ERK1/2 (Thr202/Tyr204) Assay Kit (Perkin Elmer, cat #ALSU-PERK) following the manufacturer's instruction as follows.
Briefly, the culture medium was removed and 10 μl 1× lysis buffer was added to each well, followed by 10 minutes incubation on a plate shaker at room temperature. Acceptor mixture was prepared according to manufacturer's instruction. 5 μl acceptor mixture was added to the cell lysate and the plate was wrapped with foil, spun at 500 rpm for 10 s and incubated at RT for 60 min. Donor mixture was prepared under subdued light. 5 μl donor mixture was added to the cell lysate and the plate was spun at 500 rpm for 10s and incubated at RT for another 60 min. in the dark. Signal was then measured on a EnVision 2105 multimode plate reader. […]

T1 sequence (P01116 1-188 isoform P01116-2 G12D): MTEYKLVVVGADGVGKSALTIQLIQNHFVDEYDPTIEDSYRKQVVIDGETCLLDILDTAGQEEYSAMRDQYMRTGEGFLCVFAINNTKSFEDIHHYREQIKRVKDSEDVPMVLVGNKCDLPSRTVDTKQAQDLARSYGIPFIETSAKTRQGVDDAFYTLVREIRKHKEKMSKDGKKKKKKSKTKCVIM

Row | SMILES | EC50 [µM]
1 | C#Cc1c(F)ccc2cccc(-c3ncc4c(N5CC6CCC(C)(C5)N6)nc(OC[C@]56CC(=C)CN5C[C@@H](F)C6)nc4c3F)c12 (stereo partly drawn) [Example 30, 7-(8-ethynyl-7-fluoronaphthalen-1-yl)-8-fluoro-2-(((2S,7aR)-2-fluoro-6-methylenetetrahydro-1H-pyrrolizin-7a(5H)-yl)methoxy)-4-(1-methyl-3,8-diazabicyclo[3.2.1]octan-3-yl)pyrido[4,3-d]pyrimidine] | 0.17
2 | C#Cc1c(F)ccc2cccc(-c3ncc4c(N5CC6CCC5CN6)nc(OC[C@]56CC(=C)CN5C[C@H](F)C6)nc4c3F)c12 (stereo partly drawn) [Example 31, 2-(7-(8-ethynyl-7-fluoronaphthalen-1-yl)-8-fluoro-2-(((2R,7aR)-2-fluoro-6-methylenetetrahydro-1H-pyrrolizin-7a(5H)-yl)methoxy)pyrido[4,3-d]pyrimidin-4-yl)-2,5-diazabicyclo[2.2.2]octane] | > 0.1
